From ChEMBL document CHEMBL1201862, “PubChem BioAssay data set” (2004)
Calls of active or inactive are those of the source.

Columns and labels:
HEK293 [1] = assay: HEK cell cytotoxicity by LDH release, dose response, cytotoxicity control for IDE activator project, fluorescence, HEK cells (AID 588440); format: functional, cell-based; details: Homo sapiens;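 further: cytotoxicity by LDH release measuring loss of membrane integrity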
Insulin-degrading enzyme [2] = molecular target: T1, Insulin-degrading enzyme (Homo sapiens, UniProt P14735); assay: activators of recombinant IDE enzyme, dose response, counter-screen for IDE activator project, biochemical, fluorescence polarization (AID 588681)
T1 sequence (P14735 whole entry): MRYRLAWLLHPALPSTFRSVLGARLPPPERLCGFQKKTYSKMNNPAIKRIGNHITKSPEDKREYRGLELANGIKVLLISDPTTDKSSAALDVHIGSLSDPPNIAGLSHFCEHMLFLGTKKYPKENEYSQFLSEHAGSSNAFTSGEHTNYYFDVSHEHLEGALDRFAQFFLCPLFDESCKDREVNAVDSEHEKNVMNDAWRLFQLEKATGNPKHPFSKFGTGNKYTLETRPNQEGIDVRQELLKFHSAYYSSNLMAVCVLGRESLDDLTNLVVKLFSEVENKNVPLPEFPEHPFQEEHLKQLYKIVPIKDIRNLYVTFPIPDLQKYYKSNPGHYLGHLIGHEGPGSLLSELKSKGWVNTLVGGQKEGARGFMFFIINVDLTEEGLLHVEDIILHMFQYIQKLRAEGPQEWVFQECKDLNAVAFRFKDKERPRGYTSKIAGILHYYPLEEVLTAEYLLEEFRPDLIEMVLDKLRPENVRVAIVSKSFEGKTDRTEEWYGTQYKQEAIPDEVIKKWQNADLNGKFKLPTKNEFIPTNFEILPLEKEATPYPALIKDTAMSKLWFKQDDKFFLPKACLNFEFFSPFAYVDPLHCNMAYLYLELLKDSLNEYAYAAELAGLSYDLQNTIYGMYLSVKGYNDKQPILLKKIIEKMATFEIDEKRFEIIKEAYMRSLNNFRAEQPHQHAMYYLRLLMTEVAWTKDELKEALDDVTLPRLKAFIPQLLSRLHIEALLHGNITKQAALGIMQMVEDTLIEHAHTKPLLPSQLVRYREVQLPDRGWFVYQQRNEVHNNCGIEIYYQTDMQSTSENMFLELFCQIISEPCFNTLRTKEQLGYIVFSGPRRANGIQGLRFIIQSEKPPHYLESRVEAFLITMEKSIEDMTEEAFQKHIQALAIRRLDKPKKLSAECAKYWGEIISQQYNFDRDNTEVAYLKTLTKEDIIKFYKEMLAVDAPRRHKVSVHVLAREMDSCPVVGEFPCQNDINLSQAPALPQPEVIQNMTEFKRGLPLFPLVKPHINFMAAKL

HEK293 [3] = assay: optical interference in Abeta FP readout, dose response, artefact control for IDE activator project, biochemical, fluorescence polarization (AID 588442); format: functional, cell-based; details: Homo sapiens
Insulin-degrading enzyme [4] = molecular target: T1, Insulin-degrading enzyme; assay: activators of endogenous IDE in HEK cells, dose response, cell-based, fluorescence polarization (AID 588439); format: functional
Caspase-3 = molecular target: T2, Caspase-3 (Homo sapiens, UniProt P42574); assay: caspase-3 inhibitors as off-family protease, SAR follow-up, selectivity assay for SENP protease inhibitor project, biochemical, luminescence, set 2 (AID 588599); format: functional
T2 sequence (P42574 whole entry): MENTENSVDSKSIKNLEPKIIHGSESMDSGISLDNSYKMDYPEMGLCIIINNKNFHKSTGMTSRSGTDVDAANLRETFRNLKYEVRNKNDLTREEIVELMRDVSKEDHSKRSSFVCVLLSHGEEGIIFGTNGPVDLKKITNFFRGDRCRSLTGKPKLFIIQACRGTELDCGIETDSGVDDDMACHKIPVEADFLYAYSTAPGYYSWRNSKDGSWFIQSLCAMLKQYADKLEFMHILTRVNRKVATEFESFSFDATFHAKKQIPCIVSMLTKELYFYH

[5] = molecular target: T3, Sentrin-specific protease 8 (Homo sapiens, UniProt Q96LD8); assay: SENP8 protease inhibitors, SAR follow-up, biochemical, luminescence, set 2 (AID 588601); format: functional
T3 sequence (Q96LD8 whole entry): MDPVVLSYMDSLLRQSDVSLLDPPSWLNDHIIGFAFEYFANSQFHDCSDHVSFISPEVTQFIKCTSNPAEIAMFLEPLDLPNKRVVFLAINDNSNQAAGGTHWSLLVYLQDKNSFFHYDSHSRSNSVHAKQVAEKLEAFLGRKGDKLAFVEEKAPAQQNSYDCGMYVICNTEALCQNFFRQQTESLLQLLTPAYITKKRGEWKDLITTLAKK

[6] = molecular target: T4, Sentrin-specific protease 6 (Homo sapiens, UniProt Q9GZR1); assay: SENP6 protease inhibitors, SAR follow-up, biochemical, luminescence, set 2 (AID 588598); format: functional
T4 sequence (Q9GZR1 whole entry): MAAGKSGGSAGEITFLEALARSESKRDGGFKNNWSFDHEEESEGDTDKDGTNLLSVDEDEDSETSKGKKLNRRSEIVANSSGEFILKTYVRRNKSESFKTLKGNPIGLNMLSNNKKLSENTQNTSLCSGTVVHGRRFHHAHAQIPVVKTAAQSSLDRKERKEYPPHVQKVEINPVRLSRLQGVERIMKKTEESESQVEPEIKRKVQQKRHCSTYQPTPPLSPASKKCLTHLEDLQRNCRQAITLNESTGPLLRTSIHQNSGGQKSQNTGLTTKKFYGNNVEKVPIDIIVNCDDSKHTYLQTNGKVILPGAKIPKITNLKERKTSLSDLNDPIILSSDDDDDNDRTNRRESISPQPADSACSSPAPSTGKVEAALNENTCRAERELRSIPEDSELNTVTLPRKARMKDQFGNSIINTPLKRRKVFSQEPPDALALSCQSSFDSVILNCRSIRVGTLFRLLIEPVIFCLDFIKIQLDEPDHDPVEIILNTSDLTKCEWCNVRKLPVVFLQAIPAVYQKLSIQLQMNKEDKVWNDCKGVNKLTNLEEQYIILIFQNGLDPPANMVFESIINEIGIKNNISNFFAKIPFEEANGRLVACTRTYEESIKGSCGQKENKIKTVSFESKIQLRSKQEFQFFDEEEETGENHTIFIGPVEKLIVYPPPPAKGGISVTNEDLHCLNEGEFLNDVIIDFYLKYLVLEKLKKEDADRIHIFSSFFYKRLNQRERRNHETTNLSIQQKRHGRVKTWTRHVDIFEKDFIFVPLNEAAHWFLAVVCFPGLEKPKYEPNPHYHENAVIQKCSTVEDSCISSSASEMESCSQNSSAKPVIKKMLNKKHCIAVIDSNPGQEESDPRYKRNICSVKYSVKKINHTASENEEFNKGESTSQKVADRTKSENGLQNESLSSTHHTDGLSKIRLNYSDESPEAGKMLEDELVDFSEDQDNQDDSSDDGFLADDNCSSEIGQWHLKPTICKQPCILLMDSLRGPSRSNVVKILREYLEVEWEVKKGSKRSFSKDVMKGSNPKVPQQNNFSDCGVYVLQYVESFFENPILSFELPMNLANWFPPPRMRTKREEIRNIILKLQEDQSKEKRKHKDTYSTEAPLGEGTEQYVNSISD

[7] = molecular target: T5, Sentrin-specific protease 7 (Homo sapiens, UniProt Q9BQF6); assay: SENP7 protease inhibitors, SAR follow-up, biochemical, luminescence, set 2 (AID 588600); format: functional
T5 sequence (Q9BQF6 whole entry): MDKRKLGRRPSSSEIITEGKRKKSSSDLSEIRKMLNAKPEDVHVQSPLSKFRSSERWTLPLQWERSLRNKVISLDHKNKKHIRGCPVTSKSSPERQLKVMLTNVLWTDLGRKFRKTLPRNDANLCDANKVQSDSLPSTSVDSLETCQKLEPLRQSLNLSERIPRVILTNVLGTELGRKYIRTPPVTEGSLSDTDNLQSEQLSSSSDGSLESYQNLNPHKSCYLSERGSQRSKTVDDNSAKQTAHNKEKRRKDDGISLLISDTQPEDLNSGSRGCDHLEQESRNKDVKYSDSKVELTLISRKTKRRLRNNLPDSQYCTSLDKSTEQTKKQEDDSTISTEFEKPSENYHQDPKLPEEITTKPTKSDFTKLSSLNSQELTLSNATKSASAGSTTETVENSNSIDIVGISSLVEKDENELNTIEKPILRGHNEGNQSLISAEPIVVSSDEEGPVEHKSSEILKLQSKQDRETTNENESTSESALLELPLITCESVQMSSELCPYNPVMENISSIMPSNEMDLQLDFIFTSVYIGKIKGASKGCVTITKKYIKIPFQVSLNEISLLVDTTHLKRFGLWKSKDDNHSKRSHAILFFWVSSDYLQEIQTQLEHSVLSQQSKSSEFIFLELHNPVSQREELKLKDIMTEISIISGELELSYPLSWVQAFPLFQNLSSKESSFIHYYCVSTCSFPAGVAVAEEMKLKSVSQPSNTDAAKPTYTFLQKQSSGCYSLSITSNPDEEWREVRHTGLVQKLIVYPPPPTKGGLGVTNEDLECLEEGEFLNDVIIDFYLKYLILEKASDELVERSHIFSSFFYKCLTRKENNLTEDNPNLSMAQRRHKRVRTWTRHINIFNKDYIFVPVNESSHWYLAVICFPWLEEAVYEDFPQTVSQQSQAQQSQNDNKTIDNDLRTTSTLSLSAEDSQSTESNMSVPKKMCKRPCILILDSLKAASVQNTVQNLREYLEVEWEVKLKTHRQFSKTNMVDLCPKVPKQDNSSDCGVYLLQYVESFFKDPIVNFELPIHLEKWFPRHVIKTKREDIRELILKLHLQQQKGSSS

Phospholipase A2 = Phospholipase A2 (Homo sapiens, UniProt P04054); format: functional;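 further: confirmatory dose-response counterscreen on phospholipase A2, testing hits that came from an ultra-high-throughput screen for ATG4B inhibitors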
Sequence of Phospholipase A2 (P04054 whole entry): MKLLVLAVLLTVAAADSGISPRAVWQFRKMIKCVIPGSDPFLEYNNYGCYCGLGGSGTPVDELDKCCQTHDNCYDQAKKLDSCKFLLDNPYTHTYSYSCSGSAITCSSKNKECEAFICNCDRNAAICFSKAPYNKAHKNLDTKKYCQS

Cysteine protease ATG4B = Cysteine protease ATG4B (Homo sapiens, UniProt Q9Y4P1); format: functional;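 further: Fluorescence-based dose-response confirmation assay measuring inhibition of ATG4B activity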
Sequence of Cysteine protease ATG4B (Q9Y4P1 whole entry): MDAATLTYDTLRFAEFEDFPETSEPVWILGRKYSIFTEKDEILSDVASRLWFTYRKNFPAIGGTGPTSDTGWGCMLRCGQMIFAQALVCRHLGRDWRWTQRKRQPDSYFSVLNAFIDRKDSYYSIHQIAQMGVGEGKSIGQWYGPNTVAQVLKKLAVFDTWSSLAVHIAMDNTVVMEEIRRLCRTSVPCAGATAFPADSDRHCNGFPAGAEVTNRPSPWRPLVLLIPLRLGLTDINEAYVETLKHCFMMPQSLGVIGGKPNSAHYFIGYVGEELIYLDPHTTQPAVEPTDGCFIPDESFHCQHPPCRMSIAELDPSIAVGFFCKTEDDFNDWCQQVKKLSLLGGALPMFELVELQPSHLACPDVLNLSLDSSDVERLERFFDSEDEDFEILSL

[8] = molecular target: Induced myeloid leukemia cell differentiation protein Mcl-1 (Homo sapiens, UniProt Q07820); format: functional
Sequence of Induced myeloid leukemia cell differentiation protein Mcl-1 (Q07820 whole entry): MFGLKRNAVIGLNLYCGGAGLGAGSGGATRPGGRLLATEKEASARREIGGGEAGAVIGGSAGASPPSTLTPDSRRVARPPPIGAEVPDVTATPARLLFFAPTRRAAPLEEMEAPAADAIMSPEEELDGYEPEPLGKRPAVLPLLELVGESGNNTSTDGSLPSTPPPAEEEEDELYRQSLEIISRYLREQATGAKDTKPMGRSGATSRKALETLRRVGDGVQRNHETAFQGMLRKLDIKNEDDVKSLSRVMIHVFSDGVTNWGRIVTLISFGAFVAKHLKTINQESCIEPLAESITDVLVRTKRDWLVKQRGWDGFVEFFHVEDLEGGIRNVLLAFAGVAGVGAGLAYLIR

[9] = molecular target: Apoptotic protease-activating factor 1 (Homo sapiens, UniProt O14727); assay: activation of Apaf-1 mediated apoptosis – fluorescent, uHTS hits, dose response (AID 588554); format: functional
Sequence of Apoptotic protease-activating factor 1 (O14727 whole entry): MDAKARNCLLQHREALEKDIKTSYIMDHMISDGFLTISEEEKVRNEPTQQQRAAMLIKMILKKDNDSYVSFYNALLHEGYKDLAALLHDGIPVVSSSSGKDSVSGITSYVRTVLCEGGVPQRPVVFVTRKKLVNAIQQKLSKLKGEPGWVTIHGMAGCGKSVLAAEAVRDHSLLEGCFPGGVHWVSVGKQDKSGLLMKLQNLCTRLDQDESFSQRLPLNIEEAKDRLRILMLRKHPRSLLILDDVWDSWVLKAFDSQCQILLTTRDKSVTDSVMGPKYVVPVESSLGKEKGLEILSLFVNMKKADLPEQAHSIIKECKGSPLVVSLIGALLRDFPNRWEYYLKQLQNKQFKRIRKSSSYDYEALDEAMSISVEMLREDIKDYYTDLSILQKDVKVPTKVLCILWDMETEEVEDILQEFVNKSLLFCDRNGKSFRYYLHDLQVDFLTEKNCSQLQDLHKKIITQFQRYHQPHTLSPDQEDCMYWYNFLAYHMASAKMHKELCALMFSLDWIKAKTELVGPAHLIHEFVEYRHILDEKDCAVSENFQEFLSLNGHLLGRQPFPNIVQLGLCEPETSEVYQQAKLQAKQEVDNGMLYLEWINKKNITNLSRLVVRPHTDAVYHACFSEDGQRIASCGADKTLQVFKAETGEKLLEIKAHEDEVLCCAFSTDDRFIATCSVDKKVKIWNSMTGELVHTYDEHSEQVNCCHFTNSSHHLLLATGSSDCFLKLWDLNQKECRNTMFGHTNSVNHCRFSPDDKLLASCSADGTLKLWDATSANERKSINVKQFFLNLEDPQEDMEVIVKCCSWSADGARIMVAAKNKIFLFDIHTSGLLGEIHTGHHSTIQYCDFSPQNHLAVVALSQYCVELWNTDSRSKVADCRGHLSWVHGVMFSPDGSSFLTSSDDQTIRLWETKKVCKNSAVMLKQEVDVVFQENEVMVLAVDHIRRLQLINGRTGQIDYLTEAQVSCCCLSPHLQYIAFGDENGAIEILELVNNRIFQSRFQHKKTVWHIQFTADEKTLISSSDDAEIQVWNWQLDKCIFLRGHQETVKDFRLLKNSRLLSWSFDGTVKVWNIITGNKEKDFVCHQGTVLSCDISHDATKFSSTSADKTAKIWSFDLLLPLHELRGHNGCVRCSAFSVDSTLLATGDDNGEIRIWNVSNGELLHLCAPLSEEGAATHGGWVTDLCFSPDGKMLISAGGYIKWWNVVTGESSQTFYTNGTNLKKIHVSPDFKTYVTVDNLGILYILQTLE

[10] = molecular target: T6, Bifunctional protein GlmU (Mycobacterium tuberculosis, UniProt P9WMN3); assay: Inhibitors of Mycobacterial Glucosamine-1-phosphate acetyl transferase (GlmU). Secondary screen.; design: species or system Mycobacterium tuberculosis H37Rv
T6 sequence (P9WMN3 whole entry): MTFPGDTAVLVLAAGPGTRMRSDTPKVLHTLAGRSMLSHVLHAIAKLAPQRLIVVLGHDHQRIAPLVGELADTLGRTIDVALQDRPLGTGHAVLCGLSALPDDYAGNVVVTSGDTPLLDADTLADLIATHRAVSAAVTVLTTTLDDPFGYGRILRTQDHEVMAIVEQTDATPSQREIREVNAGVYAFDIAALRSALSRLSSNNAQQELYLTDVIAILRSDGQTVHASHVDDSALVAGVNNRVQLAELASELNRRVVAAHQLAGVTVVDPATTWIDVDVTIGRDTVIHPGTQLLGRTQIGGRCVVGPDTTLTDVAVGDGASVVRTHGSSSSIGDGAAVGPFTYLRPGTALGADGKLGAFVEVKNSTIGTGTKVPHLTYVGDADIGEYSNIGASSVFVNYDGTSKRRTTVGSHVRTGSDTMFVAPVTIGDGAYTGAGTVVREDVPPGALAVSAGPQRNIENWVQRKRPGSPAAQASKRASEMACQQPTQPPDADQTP

[11] = molecular target: T7, Beta-adrenergic receptor kinase 1 (Homo sapiens, UniProt P25098); assay: aptamer displacement from bead-bound GRK2 – biochemical, cherry pick 1, bead flow cytometry, dose response (AID 504500)
T7 sequence (P25098 whole entry): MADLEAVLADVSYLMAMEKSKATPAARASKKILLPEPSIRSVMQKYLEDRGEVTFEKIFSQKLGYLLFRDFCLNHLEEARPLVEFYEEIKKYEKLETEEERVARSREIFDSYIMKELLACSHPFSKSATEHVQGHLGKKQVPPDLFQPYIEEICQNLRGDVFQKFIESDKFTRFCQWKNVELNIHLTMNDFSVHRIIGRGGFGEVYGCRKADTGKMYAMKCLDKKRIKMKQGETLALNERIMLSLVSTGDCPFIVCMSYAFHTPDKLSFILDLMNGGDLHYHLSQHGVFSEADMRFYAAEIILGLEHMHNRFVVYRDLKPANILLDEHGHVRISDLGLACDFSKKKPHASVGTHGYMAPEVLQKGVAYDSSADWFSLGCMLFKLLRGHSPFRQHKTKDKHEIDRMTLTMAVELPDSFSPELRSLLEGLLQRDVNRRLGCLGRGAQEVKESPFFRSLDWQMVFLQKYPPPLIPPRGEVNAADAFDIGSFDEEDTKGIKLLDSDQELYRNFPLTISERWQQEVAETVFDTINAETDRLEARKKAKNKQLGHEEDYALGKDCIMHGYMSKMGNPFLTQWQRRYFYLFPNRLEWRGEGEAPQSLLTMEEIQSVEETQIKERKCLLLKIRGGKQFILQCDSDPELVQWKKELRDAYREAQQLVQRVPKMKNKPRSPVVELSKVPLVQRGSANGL

Structure (SMILES): CCN(CC)CCNC(=O)C[S+]([O-])Cc1nc(-c2ccccc2Cl)oc1C (stereo unspecified)
- IC50 (HEK293 [1]): > 89.2 µM (inactive)
- EC50 (Insulin-degrading enzyme [2]): > 54.7 µM (inactive)
- EC50 (HEK293 [3]): > 55.9 µM (inactive)
- EC50 (Insulin-degrading enzyme [4]): > 54.7 µM (inactive)

Structure (SMILES): Cc1[nH]c2ccccc2c1C(=O)C(=O)NCc1cc(-c2cc3ccccc3o2)on1
- IC50 (Caspase-3): > 99 µM (inactive)
- IC50 [5]: > 99 µM (inactive)
- IC50 [6]: > 99 µM (inactive)
- IC50 [7]: > 99 µM (inactive)

Structure (SMILES): CCN(CC(=O)N1CCc2ccccc2C1)S(=O)(=O)c1ccc2ccccc2c1
- IC50 (Phospholipase A2): 4.17 µM (active)
- IC50 (Cysteine protease ATG4B): 23.7 µM (inactive)

Structure (SMILES): C=C(C)C(=O)Nc1cccc(C2=NOC3(C2)C[C@H](C(N)=O)N(C(=O)C(c2ccccc2)c2ccccc2)C3)c1 (stereo partly specified)
- IC50 [8]: 3.12 µM (active)
- EC50 [9]: 11.4 µM (active)
- IC50 [10]: 167 µM (active)
- EC50 [11]: 85.9 µM (inactive)

Structure (SMILES): O=C(Nc1c(Cl)cccc1Cl)c1cc(-c2ccco2)on1
- IC50 (Phospholipase A2): 6.14 µM (active)
- IC50 (Cysteine protease ATG4B): 13.2 µM (active)
